Assay results as given in patent publication US7585939B2, “Chromatin peptides blocking human HIF-1α gene and modulating the downstream related genes” (Geneblue Corporation, priority 2005, dated 2009).
Where no end group is shown, it is not given here.

Experiments:
[1] = system: human breast cancer cell line 0404 MDA-MB-435; assay: MDA-MB-435 human breast cancer animal model in BALB/c-nu nude mice; format: in vivo, BALB/c-nu female nude mice
Description: The experiment animals with tumor size of 100-200 MM^3 were randomized into four groups, at the 14th day after inoculation of cancer cells. There were 16 mice in each group, treated with different doses of low (0.5 mg/kg), medium (2 mg/kg), and high (5 mg/kg). The control group was treated with normal saline. Administer injection to the tumor surroundings every day after inoculation. The growth tumor volume was measured every 3 days. All experiment mice were killed at the 21st day; tumor growth rate was measured by volume and weight.

[2] = system: lung cancer existing carcinomatous metastasis to marrow; assay: Treatment of patient with lung cancer with metastasis to marrow; format: in vivo, human patient; conditions: 2 mg i.v. every 5 days
Description: Patient with lung cancer existing carcinomatous metastasis to marrow conducted radiotherapy. […] Intravenous injections were given every 5 days, with a dose of 2 mg each time, and one month as a course of treatment. In addition, antibiotics were accompanied to control complicated infection.

[3] = system: highly metastatic tumor HCT of human colon carcinoma cell line
Description: The highly metastatic tumor HCT of human colon carcinoma cell line was inoculated into the forelimb armpit of BALB/c-nu, a kind of female nude mouse, with amount of 5 million tumor cells/per mouse. Five days later, the area of tumor cells implanted was directly treated by injection with the above-mentioned 14 mer peptide solution, by a dose of 5 mg/kg daily. The drug treatment group and control (saline) group were set up, with 25 mice in each side. The experiment mice were killed after 21 days, measuring the tumor weight. After weighing the tumor taken from each mouse, keep it in 4% formaldehyde. Paraffin section shed paraffin for 10 minutes through xylene, then deal with alcohol, stain in hematoxylin, and then stains with 0.5% eosine ethanol. After that, mount with neutral gum. Analyze under microscope and take films.

[4] = system: Breast cancer; assay: Treatment of breast cancer in dogs; format: in vivo; conditions: 0.5 mg injected directly to the tumor every 15 days; 20th day
Description: Breast cancer were found in dogs, with tumor size of 45 mm×50 mm. NH2-Lys Arg Ala Ser Arg Asn Lys Ser Glu Lys Lys Arg Arg-COOH (SEQ ID NO: 20) was directly injected to the tumor, with 0.5 mg each time, and administration was given every 15 days.

[5] = system: small cell lung cancer; assay: Treatment of patient with small cell lung cancer with micrometastasis to liver; format: in vivo, human patient; conditions: 5 mg i.v. every 10 days
Description: Patient with small cell lung cancer, at middle and advanced stage, had micrometastasis to liver. […] Administer intravenous injection every 10 days, with 5 mg each time. 15 days later, dyspnoea and referred pain all vanished.

[6] = with radiotherapy and antibiotics

## NH2-Arg Lys Glu Lys Ser Arg Asp Ala Ala Arg-COOH (H-RKEKSRDAAR-OH) [10 mer peptide]
[1]; conclusion from Table 4
  breast cancer growth in the animal model: inhibit breast cancer growth
[1]; high dose 5 mg/kg daily, 3rd day
  The volume of tumor sizes on average: 1.408 CM^3
[1]; high dose 5 mg/kg daily, 7th day
  The volume of tumor sizes on average: 1.461 CM^3
[1]; high dose 5 mg/kg daily, 10th day
  The volume of tumor sizes on average: 1.253 CM^3
[1]; high dose 5 mg/kg daily, 14th day
  The volume of tumor sizes on average: 2.211 CM^3
[1]; high dose 5 mg/kg daily, 17th day
  The volume of tumor sizes on average: 2.3635 CM^3
[1]; high dose 5 mg/kg daily, 21st day
  The volume of tumor sizes on average: 1.793 CM^3
[1]; low dose 0.5 mg/kg daily, 3rd day
  The volume of tumor sizes on average: 1.475 CM^3
[1]; low dose 0.5 mg/kg daily, 7th day
  The volume of tumor sizes on average: 3.313 CM^3
[1]; low dose 0.5 mg/kg daily, 10th day
  The volume of tumor sizes on average: 4.97 CM^3
[1]; low dose 0.5 mg/kg daily, 14th day
  The volume of tumor sizes on average: 7.668 CM^3
[1]; low dose 0.5 mg/kg daily, 17th day
  The volume of tumor sizes on average: 8.482 CM^3
[1]; low dose 0.5 mg/kg daily, 21st day
  The volume of tumor sizes on average: 8.953 CM^3
[1]; medium dose 2 mg/kg daily, 3rd day
  The volume of tumor sizes on average: 1.295 CM^3
[1]; medium dose 2 mg/kg daily, 7th day
  The volume of tumor sizes on average: 2.133 CM^3
[1]; medium dose 2 mg/kg daily, 10th day
  The volume of tumor sizes on average: 2.721 CM^3
[1]; medium dose 2 mg/kg daily, 14th day
  The volume of tumor sizes on average: 4.879 CM^3
[1]; medium dose 2 mg/kg daily, 17th day
  The volume of tumor sizes on average: 6.274 CM^3
[1]; medium dose 2 mg/kg daily, 21st day
  The volume of tumor sizes on average: 6.119 CM^3

## RRKEKSRDAARSRR [14 mer peptide]
[2]; one month as a course
  cancer status: cancer free three months later
[2]; [6]
  Skeleton ache symptom: decreased after five days
  osteodynia: disappeared 20 days later
[3]; 5 mg/kg daily injected at tumor area from day 5, killed after 21 days, 25 mice per group
  experiment mice in the treatment group with tumors totally disappeared: four
[3]; 5 mg/kg daily, treatment group vs saline control, FIG. 1(A)/1(B)
  pathological section of tumor: a lot of apoptotic bodies and cell debris were found in the central part of the tumor

## NH2-Lys Arg Ala Ser Arg Asn Lys Ser Glu Lys Lys Arg Arg-COOH (H-KRASRNKSEKKRR-OH) [SEQ ID NO: 20]
[4]
  tumor (size 45 mm×50 mm): Tumor disappeared

## NH2-Arg Lys Glu Lys Ser Arg Asp Ala Ala Arg Cys Arg Arg-COOH (H-RKEKSRDAARCRR-OH) [13mer peptide]
[5]; 90th day
  microscopic repeated test of sputum: no malignant cells falling off
[5]; 100th day
  biopsy: no malignant cells
[5]; 15 days later
  dyspnoea and referred pain: all vanished
